Results taken from EP2818472A1, “Imidazo[4,5-c]pyridine and pyrrolo[3,2-c]pyridine compounds as G-protein-coupled receptor kinase 5 (GRK5) modulators” (Max-Planck-Gesellschaft zur Förderung der Wissenschaften …, priority 2013, dated 2014).

Tested on: beta-TC6 cells
Experiment: Insulin HTRF assay (relative activity Ar) in beta-TC6 cells
Format: cell-based, mouse
Conditions: Mus musculus, Beta-TC6, 4 h, insulin HTRF, supernatant of beta-TC6 cells, incubation with test compound at 37°C for 2, 3, 4h; read-out: Ar (relative activity)
Method in brief: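 beta-TC6 cells (15k/well, seeded 24 or 48 h) washed, then exposed to compound in induction buffer (0.5% DMSO final) for 2, 3 or 4 h at 37°C.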

Compound	Emax
CC(=O)Nc1cccc(Nc2nccc3c2cc(-c2cccnc2)n3C)c1 [Compound 245, N-[3-[[1-methyl-2-(3-pyridyl)pyrrolo[3,2-c]pyridin-4-yl]amino]phenyl]acetamide]	50 to 100%
CC(C)c1ccc(Nc2cc3[nH]c(-c4ccc(C(=O)N(C)C)cc4)cc3cn2)cc1 [Compound 38, 4-[6-(4-isopropylanilino)-1H-pyrrolo[3,2-c]pyridin-2-yl]-N,N-dimethyl-benzamide]	0 to 30%
COc1cc(-c2cc3c(cn2)nc(NCc2cccc(C)c2)n3C)ccc1O [Compound 808, 2-methoxy-4-[1-methyl-2-(m-tolylmethylamino)imidazo[4,5-c]pyridin-6-yl]phenol]	30 to 50%
COc1ccc(Nc2cc3[nH]c(-c4cccnc4)cc3cn2)cn1 [Compound 75, N-(6-methoxy-3-pyridyl)-2-(3-pyridyl)-1H-pyrrolo[3,2-c]pyridin-6-amine]	> 100%
COCCNc1nc2cnc(-c3cnn(C)c3)cc2n1C [Compound 651, N-(2-methoxyethyl)-1-methyl-6-(1-methylpyrazol-4-yl)imidazo[4,5-c]pyridin-2-amine]	50 to 100%
CNc1nc2cnc(Nc3ccc(C(=O)OC)cc3)cc2n1-c1ccccc1 [Compound 511, methyl 4-[[2-(methylamino)-1-phenyl-imidazo[4,5-c]pyridin-6-yl]amino]benzoate]	30 to 50%
CNc1nc2cnc(Nc3ccc(OC)cc3)cc2n1-c1cc(OC)c(OC)c(OC)c1 [Compound 490, N6-(4-methoxyphenyl)-N2-methyl-1-(3,4,5-trimethoxyphenyl)imidazo[4,5-c]pyridine-2,6-diamine]	50 to 100%
COc1cccc(-c2nc3c(Nc4ccc(OC)c(OC)c4)nccc3[nH]2)c1 [Compound 369, N-(3,4-dimethoxyphenyl)-2-(3-methoxyphenyl)-1H-imidazo[4,5-c]pyridin-4-amine]	> 100%
COCCNc1nc2cnc(-c3cccc(N(C)C)c3)cc2n1C [Compound 647, 6-[3-(dimethylamino)phenyl]-N-(2-methoxyethyl)-1-methyl-imidazo[4,5-c]pyridin-2-amine]	50 to 100%
COc1ccc(Nc2nccc3[nH]c(-c4ccsc4)cc23)cc1OC [Compound 253, N-(3,4-dimethoxyphenyl)-2-(3-thienyl)-1H-pyrrolo[3,2-c]pyridin-4-amine]	50 to 100%
Cn1c(-c2ccccc2)nc2cnc(Nc3ccc4c(c3)OCO4)cc21 [Compound 706, N-(1,3-benzodioxol-5-yl)-1-methyl-2-phenyl-imidazo[4,5-c]pyridin-6-amine]	50 to 100%
CC(=O)Nc1cccc(Nc2nccc3[nH]c(-c4ccccc4)cc23)c1 [Compound 323, N-[3-[(2-phenyl-1 H-pyrrolo[3,2-c]pyridin-4-yl)amino]phenyl]acetamide]	50 to 100%
c1ccc(Cn2c(-c3ccccc3)cc3cnc(Nc4ccncn4)cc32)cc1 [Compound 184, 1-benzyl-2-phenyl-N-pyrimidin-4-yl-pyrrolo[3,2-c]pyridin-6-amine]	30 to 50%
COc1ccc(Nc2nccc3[nH]c(-c4cccc(F)c4)nc23)cn1 [Compound 405, 2-(3-fluorophenyl)-N-(6-methoxy-3-pyridyl)-1H-imidazo[4,5-c]pyridin-4-amine]	30 to 50%
COc1cc(Nc2cc3[nH]c(-c4ccccc4)cc3cn2)cc(OC)c1OC [Compound 174, 2-phenyl-N-(3,4,5-trimethoxyphenyl)-1H-pyrrolo[3,2-c]pyridin-6-amine]	50 to 100%
COc1ccc(-c2cc3c(cn2)nc(NCc2cccc(C)c2)n3C)cc1 [Compound 807, 6-(4-methoxyphenyl)-1-methyl-N-(m-tolylmethyl)imidazo[4,5-c]pyridin-2-amine]	30 to 50%
CN1CCN(c2ccc(Nc3nccc4[nH]c(-c5ccccc5)cc34)cc2)CC1 [Compound 320, N-[4-(4-methylpiperazin-1-yl)phenyl]-2-phenyl-1H-pyrrolo[3,2-c]pyridin-4-amine]	30 to 50%
CNc1nc2cnc(-c3cccs3)cc2n1-c1cccc(F)c1 [Compound 687, 1-(3-fluorophenyl)-N-methyl-6-(2-thienyl)imidazo[4,5-c]pyridin-2-amine]	50 to 100%
COc1ccc(Nc2nccc3c2cc(-c2cccnc2)n3C)c(C)c1 [Compound 240, N-(4-methoxy-2-methyl-phenyl)-1-methyl-2-(3-pyridyl)pyrrolo[3,2-c]pyridin-4-amine]	0 to 30%
COc1ccc(-c2nc3cnc(Nc4ccc(C(N)=O)cc4)cc3n2C)cc1OC [Compound 719, 4-[[2-(3,4-dimethoxyphenyl)-1-methyl-imidazo[4,5-c]pyridin-6-yl]amino]benzamide]	30 to 50%
CNc1nc2cnc(Nc3cccc(OC(C)C)c3)cc2n1Cc1ccc(OC)c(OC)c1 [Compound 676, 1-[(3,4-dimethoxyphenyl)methyl]-N6-(3-isopropoxyphenyl)-N2-methyl-imidazo[4,5-c]pyridine-2,6-diamine]	30 to 50%
CNc1nc2cnc(Nc3cccc(N(C)C)c3)cc2n1CC1CC1 [Compound 573, 1-(cyclopropylmethyl)-N6-[3-(dimethylamino)phenyl]-N2-methyl-imidazo[4,5-c]pyridine-2,6-diamine]	30 to 50%

Compound	Emax
CN(C)c1cccc(Nc2cc3c(cn2)cc(-c2cccnc2)n3C)c1 [Compound 89, N1,N1-dimethyl-N3-[1-methyl-2-(3-pyridyl)pyrrolo[3,2-c]pyridin-6-yl]benzene-1,3-diamine]	50 to 100%
Fc1cccc(-c2cc3c(Nc4cccnc4)nccc3[nH]2)c1 [Compound 200, 2-(3-fluorophenyl)-N-(3-pyridyl)-1H-pyrrolo[3,2-c]pyridin-4-amine]	30 to 50%
CNc1nc2cnc(-c3ccc(Cl)cc3)cc2n1Cc1ccccc1 [Compound 792, 1-benzyl-6-(4-chlorophenyl)-N-methyl-imidazo[4,5-c]pyridin-2-amine]	30 to 50%
CNc1nc2cnc(Nc3cccc(O)c3)cc2n1-c1cc(OC)c(OC)c(OC)c1 [Compound 491, 3-[[2-(methylamino)-1-(3,4,5-trimethoxyphenyl)imidazo[4,5-c]pyridin-6-yl]amino]phenol]	50 to 100%
COc1ccc(-c2nc3c(N4CCN(C)CC4)nccc3[nH]2)cc1 [Compound 396, 2-(4-methoxyphenyl)-4-(4-methylpiperazin-1-yl)-1H-imidazo[4,5-c]pyridine]	30 to 50%
c1cncc(Nc2nccc3[nH]c(-c4cccnc4)cc23)c1 [Compound 234, N,2-bis(3-pyridyl)-1H-pyrrolo[3,2-c]pyridin-4-amine]	50 to 100%
Cn1c(NCc2ccccc2)nc2cnc(-c3ccc(N)nc3)cc21 [Compound 625, 6-(6-amino-3-pyridyl)-N-benzyl-1-methyl-imidazo[4,5-c]pyridin-2-amine]	> 100%
CN1CCN(c2ccc(Nc3cc4[nH]c(-c5ccccc5)cc4cn3)cc2)CC1 [Compound 177, N-[4-(4-methylpiperazin-1-yl)phenyl]-2-phenyl-1H-pyrrolo[3,2-c]pyridin-6-amine]	50 to 100%
CNc1nc2cnc(Nc3cccc(O)c3)cc2n1Cc1ccccc1 [Compound 535, 3-[[1-benzyl-2-(methylamino)imidazo[4,5-c]pyridin-6-yl]amino]phenol]	50 to 100%
CC(=O)N(C)c1cccc(-c2cc3cnc(Nc4ccc(S(C)(=O)=O)cc4)cc3n2C)c1 [Compound 173, N-methyl-N-[3-[1-methyl-6-(4-methylsulfonylanilino)pyrrolo[3,2-c]pyridin-2-yl]phenyl]acetamide]	30 to 50%
CNc1nc2cnc(Nc3ccc(OC)cc3)cc2n1Cc1ccco1 [Compound 523, 1-(2-furylmethyl)-N6-(4-methoxyphenyl)-N2-methyl-imidazo[4,5-c]pyridine-2,6-diamine]	50 to 100%
COc1ccc(CNc2nc3cnc(Nc4ccc(F)cc4)cc3n2C)cc1OC [Compound 607, N2-[(3,4-dimethoxyphenyl)methyl]-N6-(4-fluorophenyl)-1-methyl-imidazo[4,5-c]pyridine-2,6-diamine]	50 to 100%
COCCNc1nc2cnc(Nc3ccc(C(=O)OC)cc3)cc2n1C [Compound 649, methyl 4-[[2-(2-methoxyethylamino)-1-methyl-imidazo[4,5-c]pyridin-6-yl]amino]benzoate]	50 to 100%
Cn1c(Nc2ccccc2)nc2cnc(Nc3ccncc3)cc21 [Compound 636, 1-methyl-N2-phenyl-N6-(4-pyridyl)imidazo[4,5-c]pyridine-2,6-diamine]	50 to 100%
CNc1nc2cnc(Nc3cccc(NS(C)(=O)=O)c3)cc2n1-c1cc(OC)c(OC)c(OC)c1 [Compound 492, N-[3-[[2-(methylamino)-1-(3,4,5-trimethoxyphenyl)imidazo[4,5-c]pyridin-6-yl]amino]phenyl]methanesulfonamide]	30 to 50%
COc1cc(-c2cc3c(cn2)nc(NCc2ccccc2F)n3C)ccc1O [Compound 656, 4-[2-[(2-fluorophenyl)methylamino]-1-methyl-imidazo[4,5-c]pyridin-6-yl]-2-methoxy-phenol]	30 to 50%
COc1ccc(Nc2nccc3[nH]c(-c4ccc(C)cc4)nc23)cc1OC [Compound 378, N-(3,4-dimethoxyphenyl)-2-(p-tolyl)-1H-imidazo[4,5-c]pyridin-4-amine]	50 to 100%
CNc1nc2cnc(Nc3ccc(OC)cc3OC)cc2n1-c1cc(OC)c(OC)c(OC)c1 [Compound 486, N6-(2,4-dimethoxyphenyl)-N2-methyl-1-(3,4,5-trimethoxyphenyl)imidazo[4,5-c]pyridine-2,6-diamine]	30 to 50%
c1cc(Nc2nccc3[nH]c(-c4ccsc4)cc23)ccn1 [Compound 258, N-(4-pyridyl)-2-(3-thienyl)-1H-pyrrolo[3,2-c]pyridin-4-amine]	> 100%
CC(=O)N(C)c1cccc(-c2cc3cnc(Nc4cccc(O)c4)cc3n2C)c1 [Compound 170, N-[3-[6-(3-hydroxyanilino)-1-methyl-pyrrolo[3,2-c]pyridin-2-yl]phenyl]-N-methyl-acetamide]	50 to 100%
CNc1nc2cnc(-c3cccs3)cc2n1-c1ccccc1 [Compound 514, N-methyl-1-phenyl-6-(2-thienyl)imidazo[4,5-c]pyridin-2-amine]	30 to 50%
